molecular target: human LPAR1 (Homo sapiens (Human), UniProt Q92633); assay: LPAR1 intracellular calcium mobilization assay (antagonist mode, FLIPR); type: cell-based; conditions: CHO-K1 EDG2 cells expressing human LPAR1, LPA 18:2 at EC80 (100 nM), test compound 0.5 nM to 10 μM
Sequence (Q92633 whole entry): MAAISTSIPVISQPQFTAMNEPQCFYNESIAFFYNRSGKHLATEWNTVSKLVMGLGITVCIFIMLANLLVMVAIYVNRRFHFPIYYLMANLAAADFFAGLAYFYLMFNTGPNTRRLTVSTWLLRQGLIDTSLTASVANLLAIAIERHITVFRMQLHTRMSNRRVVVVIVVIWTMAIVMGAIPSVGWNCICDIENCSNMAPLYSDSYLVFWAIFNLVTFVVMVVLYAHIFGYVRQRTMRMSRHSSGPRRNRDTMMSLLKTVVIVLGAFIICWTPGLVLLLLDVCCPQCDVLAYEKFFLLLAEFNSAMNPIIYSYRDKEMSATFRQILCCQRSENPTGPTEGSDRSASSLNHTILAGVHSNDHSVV

Structure (SMILES)	EC50 [nM]
C[C@@H](OC(=O)Nc1c(-c2ccc(NC(=O)c3ccnc(F)c3F)cn2)nnn1C)c1cccnc1F [Compound 294, (R)-1-(2-fluoropyridin-3-yl)ethyl (4-(5-(2,3-difluoroisonicotinamido)pyridin-2-yl)-1-methyl-1H-1,2,3-triazol-5-yl)carbamate]	238
C[C@@H](OC(=O)Nc1c(-c2ccc(NC(=O)c3ccc(C(F)F)nc3)cn2)nnn1C)c1cccnc1F [Compound 295, (R)-1-(2-fluoropyridin-3-yl)ethyl (4-(5-(6-(difluoromethyl)nicotinamido)pyridin-2-yl)-1-methyl-1H-1,2,3-triazol-5-yl)carbamate]	391
C[C@@H](OC(=O)Nc1c(-c2ccc(NC(=O)c3ccc(C(F)(F)F)nc3)cn2)nnn1C)c1cccnc1F [Compound 296, (R)-1-(2-fluoropyridin-3-yl)ethyl (1-methyl-4-(5-(6-(trifluoromethyl)nicotinamido)pyridin-2-yl)-1H-1,2,3-triazol-5-yl)carbamate]	46.9
C[C@@H](OC(=O)Nc1c(-c2ccc(NC(=O)C3(C#N)CNC3)cn2)nnn1C)c1cc(F)cnc1F [Compound 297, (R)-1-(2,5-difluoropyridin-3-yl)ethyl (4-(5-(3-cyanoazetidine-3-carboxamido)pyridin-2-yl)-1-methyl-1H-1,2,3-triazol-5-yl)carbamate]	354
C[C@@H](OC(=O)Nc1c(-c2ccc(NC(=O)C3(C(F)F)CNC3)cn2)nnn1C)c1cc(F)cnc1F [Compound 298, (R)-1-(2,5-difluoropyridin-3-yl)ethyl (4-(5-(3-(difluoromethyl)azetidine-3-carboxamido)pyridin-2-yl)-1-methyl-1H-1,2,3-triazol-5-yl)carbamate]	1250
C[C@@H](OC(=O)Nc1c(-c2ccc(NC(=O)C3(C#N)CCNCC3)cn2)nnn1C)c1cc(F)cnc1F [Compound 299, (R)-1-(2,5-difluoropyridin-3-yl)ethyl (4-(5-(4-cyanopiperidine-4-carboxamido)pyridin-2-yl)-1-methyl-1H-1,2,3-triazol-5-yl)carbamate]	4990
C[C@@H](OC(=O)Nc1c(-c2ccc(NC(=O)C3(CN)CC3(F)F)cn2)nnn1C)c1cc(F)cnc1F (stereo partly drawn) [Compound 300, (R)-1-(2,5-difluoropyridin-3-yl)ethyl (4-(5-(1-(aminomethyl)-2,2-difluorocyclopropane-1-carboxamido)pyridin-2-yl)-1-methyl-1H-1,2,3-triazol-5-yl)carbamate]	961
C[C@@H](OC(=O)Nc1c(-c2ccc(NC(=O)C3(CN)CC(F)(F)C3)cn2)nnn1C)c1cc(F)cnc1F [Compound 301, (R)-1-(2,5-difluoropyridin-3-yl)ethyl (4-(5-(1-(aminomethyl)-3,3-difluorocyclobutane-1-carboxamido)pyridin-2-yl)-1-methyl-1H-1,2,3-triazol-5-yl)carbamate]	66.9
C[C@@H](OC(=O)Nc1c(-c2ccc(NC(=O)C3(C#N)CCNC3)cn2)nnn1C)c1cc(F)cnc1F (stereo partly drawn) [Compound 302, (R)-1-(2,5-difluoropyridin-3-yl)ethyl (4-(5-(3-cyanopyrrolidine-3-carboxamido)pyridin-2-yl)-1-methyl-1H-1,2,3-triazol-5-yl)carbamate]	669
C[C@@H](OC(=O)Nc1c(-c2ccc(NC(=O)C3(CN)CCC3)cn2)nnn1C)c1cc(F)cnc1F [Compound 303, (R)-1-(2,5-difluoropyridin-3-yl)ethyl (4-(5-(1-(aminomethyl)cyclobutane-1-carboxamido)pyridin-2-yl)-1-methyl-1H-1,2,3-triazol-5-yl)carbamate]	565
C[C@@H](OC(=O)Nc1c(-c2ccc(NC(=O)C3(CN)CC(F)(F)C3)cn2)nnn1C)c1cc(F)cnc1Cl [Compound 304, (R)-1-(2-chloro-5-fluoropyridin-3-yl)ethyl (4-(5-(1-(aminomethyl)-3,3-difluorocyclobutane-1-carboxamido)pyridin-2-yl)-1-methyl-1H-1,2,3-triazol-5-yl)carbamate]	46.4
C[C@@H](OC(=O)Nc1c(-c2ccc(NC(=O)C3(C#N)CN(CC(F)(F)F)C3)cn2)nnn1C)c1cc(F)cnc1F [Compound 305, (R)-1-(2,5-difluoropyridin-3-yl)ethyl (4-(5-(3-cyano-1-(2,2,2-trifluoroethyl)azetidine-3-carboxamido)pyridin-2-yl)-1-methyl-1H-1,2,3-triazol-5-yl)carbamate]	1000
C[C@@H](OC(=O)Nc1c(-c2ccc(NC(=O)[C@H]3C[C@H](NCC(F)(F)F)C3)cn2)nnn1C)c1cccnc1Cl [Compound 306, (R)-1-(2-chloropyridin-3-yl)ethyl (1-methyl-4-(5-((1r,3R)-3-((2,2,2-trifluoroethyl)amino)cyclobutane-1-carboxamido)pyridin-2-yl)-1H-1,2,3-triazol-5-yl)carbamate]	99.7
C[C@@H](OC(=O)Nc1c(-c2ccc(NC(=O)[C@H]3[C@@H]4CN(CC(F)(F)F)C[C@@H]43)cn2)nnn1C)c1cccnc1Cl [Compound 308, (R)-1-(2-chloropyridin-3-yl)ethyl (1-methyl-4-(5-((1R,5S,6r)-3-(2,2,2-trifluoroethyl)-3-azabicyclo[3.1.0]hexane-6-carboxamido)pyridin-2-yl)-1H-1,2,3-triazol-5-yl)carbamate]	337
C[C@@H](OC(=O)Nc1c(-c2ccc(NC(=O)C3CN(CC(F)(F)F)C3)cn2)nnn1C)c1cccnc1Cl [Compound 309, (R)-1-(2-chloropyridin-3-yl)ethyl (1-methyl-4-(5-(1-(2,2,2-trifluoroethyl)azetidine-3-carboxamido)pyridin-2-yl)-1H-1,2,3-triazol-5-yl)carbamate]	133
C[C@@H](OC(=O)Nc1c(-c2ccc(NC(=O)C3(N)CC(F)(F)C3)cn2)nnn1C)c1cccnc1Cl [Compound 310, (R)-1-(2-chloropyridin-3-yl)ethyl (4-(5-(1-amino-3,3-difluorocyclobutane-1-carboxamido)pyridin-2-yl)-1-methyl-1H-1,2,3-triazol-5-yl)carbamate]	454
C[C@@H](OC(=O)Nc1c(-c2ccc(NC(=O)C3CC(NC4CC4)C3)cn2)nnn1C)c1cccnc1Cl (some centres unmarked) [Compound 311]	1530
CC(=O)NC12CC(C(=O)Nc3ccc(-c4nnn(C)c4NC(=O)O[C@H](C)c4cccnc4Cl)nc3)(C1)C2 [Compound 312]	1530
Cc1nc(-c2nnn(C)c2NC(=O)O[C@H](C)c2cc(F)cnc2F)ccc1NC(=O)C1(C#N)CC1 [Compound 313, (R)-1-(2,5-difluoropyridin-3-yl)ethyl (4-(5-(1-cyanocyclopropane-1-carboxamido)-6-methylpyridin-2-yl)-1-methyl-1H-1,2,3-triazol-5-yl)carbamate]	51.8
Cc1nc(-c2nnn(C)c2NC(=O)O[C@H](C)c2cc(F)cnc2F)ccc1NC(=O)c1cnc(C(F)(F)F)nc1 [Compound 314, (R)-1-(2,5-difluoropyridin-3-yl)ethyl (1-methyl-4-(6-methyl-5-(2-(trifluoromethyl)pyrimidine-5-carboxamido)pyridin-2-yl)-1H-1,2,3-triazol-5-yl)carbamate]	2.9
C[C@@H](OC(=O)Nc1c(-c2ccc(NC(=O)c3ccc(C(F)(F)F)nc3)c(F)n2)nnn1C)c1cccnc1Cl [Compound 315, (R)-1-(2-chloropyridin-3-yl)ethyl (4-(6-fluoro-5-(6-(trifluoromethyl)nicotinamido)pyridin-2-yl)-1-methyl-1H-1,2,3-triazol-5-yl)carbamate]	12.7
C[C@@H](OC(=O)Nc1c(-c2ccc(NC(=O)C3(C#N)CC3)c(F)n2)nnn1C)c1cccnc1Cl [Compound 316, (R)-1-(2-chloropyridin-3-yl)ethyl (4-(5-(1-cyanocyclopropane-1-carboxamido)-6-fluoropyridin-2-yl)-1-methyl-1H-1,2,3-triazol-5-yl)carbamate]	41.6
C[C@@H](OC(=O)Nc1c(-c2cc(F)c(NC(=O)c3ccc(C(F)(F)F)nc3)cn2)nnn1C)c1cccnc1Cl [Compound 317, (R)-1-(2-chloropyridin-3-yl)ethyl (4-(4-fluoro-5-(6-(trifluoromethyl)nicotinamido)pyridin-2-yl)-1-methyl-1H-1,2,3-triazol-5-yl)carbamate]	90.5
C[C@@H](OC(=O)Nc1c(-c2ccc(NC(=O)c3cnc(C(F)(F)F)nc3)c(F)n2)nnn1C)c1cccnc1Cl [Compound 318, (R)-1-(2-chloropyridin-3-yl)ethyl (4-(6-fluoro-5-(2-(trifluoromethyl)pyrimidine-5-carboxamido)pyridin-2-yl)-1-methyl-1H-1,2,3-triazol-5-yl)carbamate]	9.5
C[C@@H](OC(=O)Nc1c(-c2ncc(NC(=O)c3ccc(Cl)nc3)cn2)nnn1C)c1cc(F)cnc1F [Compound 319, (R)-1-(2,5-difluoropyridin-3-yl)ethyl (4-(5-(6-chloronicotinamido)pyrimidin-2-yl)-1-methyl-1H-1,2,3-triazol-5-yl)carbamate]	1500
C[C@@H](OC(=O)Nc1c(-c2cnc(NC(=O)c3ccc(Cl)nc3)cn2)nnn1C)c1cc(F)cnc1F [Compound 320, (R)-1-(2,5-difluoropyridin-3-yl)ethyl (4-(5-(6-chloronicotinamido)pyrazin-2-yl)-1-methyl-1H-1,2,3-triazol-5-yl)carbamate]	131
C[C@@H](OC(=O)Nc1c(-c2cnc(NC(=O)c3ccc(C(F)F)nc3)cn2)nnn1C)c1cc(F)cnc1F [Compound 321, (R)-1-(2,5-difluoropyridin-3-yl)ethyl (4-(5-(6-(difluoromethyl)nicotinamido)pyrazin-2-yl)-1-methyl-1H-1,2,3-triazol-5-yl)carbamate]	309
C[C@@H](OC(=O)Nc1c(-c2cnc(NC(=O)c3ccc(C(F)(F)F)nc3)cn2)nnn1C)c1cc(F)cnc1F [Compound 322, (R)-1-(2,5-difluoropyridin-3-yl)ethyl (1-methyl-4-(5-(6-(trifluoromethyl)nicotinamido)pyrazin-2-yl)-1H-1,2,3-triazol-5-yl)carbamate]	170
C[C@@H](OC(=O)Nc1c(-c2cnc(NC(=O)c3ccnc(F)c3F)cn2)nnn1C)c1cc(F)cnc1F [Compound 323, (R)-1-(2,5-difluoropyridin-3-yl)ethyl (4-(5-(2,3-difluoroisonicotinamido)pyrazin-2-yl)-1-methyl-1H-1,2,3-triazol-5-yl)carbamate]	178

From patent US11912686B2 (Gilead Sciences, Inc., priority 2020, dated 2024)
